# Values joined by “and” are separate entries in the source; they are usually repeats but may differ in a detail not shown here. Identical values can stand only once.
# Legend:
# [1] = tested on: male Sprague-Dawley rats; assay: Paw pressure assay, mechanical hyperalgesia (PWT) in thermal burn pain model; assay type: in vivo, rat; conditions: rat burn injury 55° C. 24 s
# Procedure: (§1) Test Animals: Each experiment used male Sprague-Dawley rats weighing between 190-260 g at the time of thermal burn injury. The rats were housed two per cage, and were allowed to acclimate to their environment for at least six days before testing began. The rats had free access to food and water at all times, except during testing and prior to oral (PO) administration of a test compound, when food was removed about 16 hours before dosing. The rats were divided into treatment groups, and one of the following compounds was administered to each group at the dose and by the route of administration indicated in Tables 5.2A to 5.2C, 5.3A and 5.3B, and 5.4A and 5.4B: ketorolac (Sigma-Aldrich, St. Louis, Mo.), AMG 517 (selective TRPV1 antagonist described in Em. Doherty et al., “Novel vanilloid receptor-1 antagonists:2. Structure-activity relationships of 4-oxopyrimidines leading to the selection of a clinical candidate,” J Med Chem 50:3515-3527 (2007).) (Purdue Pharma L. P., Cranbury, N.J.), indomethacin (Alexis Biochemicals, Farmingdale, N.Y.), gabapentin (Bosche Scientific, New Brunswick, N.J.), or (S)-3-chloro-5-(1,2-dihydroxyethyl)-N-(5-(trifluoromethyl)pyridin-2-yl)-5′,6′-dihydro-[2,4′-bipyridine]-1′(2′H)-carboxamide (Compound 1). The control groups were administered the vehicle for the compound of formula (I). The volume of administration for PO treatment was 5 ml/kg, and was the same for all treatment groups. Volume of administration for intraperitoneal (i.p.) drug administration was 2 ml/kg.
# (§2) To assess the actions of a compound of formula (I) for the treatment or prevention of burn pain, a model of thermal burn pain was used. A thermal burn injury was induced under isofluorane/O2 inhalation anesthesia. To assess mechanical hyperalgesia and weight bearing, a thermal injury was produced by immersing the left hind paw into water maintained at 55° C. for 24 seconds. The left hind paw of non-injured control animals was immersed in 22° C. water for 24 seconds. To assess thermal hyperalgesia, a thermal injury was produced by immersing the left hindpaw into water maintained at 50° C. for 48 seconds; the left hind-paw of non-injured control animals was immersed in 22° C. water for 48 seconds. The animals were assessed for response to noxious mechanical stimuli by determining PWT for mechanical hyperalgesia, weight bearing difference between the injured or non-injured side, or response to noxious thermal stimuli by determining PWL for thermal hyperalgesia, all as described below, prior to drug administration (baseline), then again at 1, 3 and 5 hours after induction of burn injury.
# The paw pressure assay was used to assess mechanical hyperalgesia. For this assay, hind paw withdrawal thresholds (PWT) to a noxious mechanical stimulus were determined using an analgesimeter (Model 7200, commercially available from Ugo Basile of Italy) as described in C. Stein, “Unilateral Inflammation of the Hindpaw in Rats as a Model of Prolonged Noxious Stimulation: Alterations in Behavior and Nociceptive Thresholds,” Pharmacol. Biochem. and Behavior 31:451-455 (1988). The rat's paw was placed on a small platform, and weight was applied in a graded manner up to a maximum of 250 grams. The endpoint was taken as the weight at which the paw was completely withdrawn. PWT was determined once for each rat at each time point, wherein the affected (ipsilateral; same side as the injury) rear paw was tested. […] All drug treatment groups were compared to the vehicle control group (i.e. injured, administered only the vehicle).
# [2] = tested on: male Sprague-Dawley rats; assay: Hind limb weight bearing (incapacitance meter, % WL) in thermal burn pain model; assay type: in vivo, rat; conditions: rat burn injury 55° C. 24 s, 100 mg/kg IP in NaCl
# Procedure: as §1, §2
# A commercially available incapacitance meter was used to determine the weight distribution on the two hind paws of the animal (Linton Incapacitance Tester (Linton Instrumentation, Norfolk, UK)). The weight bearing difference (WBD) between the injured and non-injured hindpaw was measured. The animal was placed in the testing chamber that allows the animal to stand normally, distributing its body weight on the hind limbs for the test. Each hind paw was positioned on a separate pressure sensitive pad, which independently measures the pressure applied by each limb. The device continuously collects data after either a force threshold has been exceeded, or the investigator depresses the start pad. Rats were allowed to acclimate when placed on the apparatus, and when they were stationary, the force exerted was then continuously monitored for 3 s. The endpoint was the amount of pressure applied to each limb over time. Three readings were taken for each rat at each time point, and the average used for data analysis. WBD was expressed as “% WL”, i.e. the percentage of weight borne on the burn-injured left hind paw, using the following formula: […]
# where WLP is the weight on the left hind paw and WRP is the weight on the right (untreated) hind paw. The 50% value of % WL corresponds to an equal weight distribution across both hind paws. […]
# [3] = 3 mg/kg IP, 1 h after administration
# [4] = 3 mg/kg IP, 3 h after administration
# [5] = 3 mg/kg IP, 5 h after administration
# [6] = 10 mg/kg IP, 1 h after administration
# [7] = 10 mg/kg IP, 3 h after administration
# [8] = 10 mg/kg IP, 5 h after administration
# [9] = 30 mg/kg IP, 1 h after administration
# [10] = 30 mg/kg IP, 3 h after administration
# [11] = 30 mg/kg IP, 5 h after administration
# [12] = 100 mg/kg IP in 0.9% NaCl, 1 h after administration, 100 mg/kg
# [13] = 100 mg/kg IP in 0.9% NaCl, 5 h after administration, 100 mg/kg
compound,measurement,setting,value
"NCC1(CC(=O)O)CCCCC1 [Gabapentin, gabapentin]",% Decrease from Baseline (mean ± S.E.M.) of Paw Withdrawal Threshold,[1]; [3],61 ± 2.1%
same,Paw Withdrawal Threshold (g) (mean ± S.E.M.),[1]; [3],90 ± 4.1 g
same,% Decrease from Baseline (mean ± S.E.M.) of Paw Withdrawal Threshold,[1]; [4],55 ± 3.7%
same,Paw Withdrawal Threshold (g) (mean ± S.E.M.),[1]; [4],102 ± 7.4 g
same,% Decrease from Baseline (mean ± S.E.M.) of Paw Withdrawal Threshold,[1]; [5],65 ± 3.0%
same,Paw Withdrawal Threshold (g) (mean ± S.E.M.),[1]; [5],81 ± 6.5 g
same,Paw Withdrawal Threshold (g) (mean ± S.E.M.),"[1]; 3 mg/kg IP, baseline (prior to drug administration)",232 ± 10.0 g
same,% Decrease from Baseline (mean ± S.E.M.) of Paw Withdrawal Threshold,[1]; [6],47 ± 3.9%
same,Paw Withdrawal Threshold (g) (mean ± S.E.M.),[1]; [6],122 ± 9.1 g
same,% Decrease from Baseline (mean ± S.E.M.) of Paw Withdrawal Threshold,[1]; [7],43 ± 3.7%
same,Paw Withdrawal Threshold (g) (mean ± S.E.M.),[1]; [7],130 ± 8.2 g
same,% Decrease from Baseline (mean ± S.E.M.) of Paw Withdrawal Threshold,[1]; [8],57 ± 3.2%
same,Paw Withdrawal Threshold (g) (mean ± S.E.M.),[1]; [8],100 ± 8.7 g
same,Paw Withdrawal Threshold (g) (mean ± S.E.M.),"[1]; 10 mg/kg IP, baseline (prior to drug administration)",231 ± 9.7 g
same,% Decrease from Baseline (mean ± S.E.M.) of Paw Withdrawal Threshold,[1]; [9],40 ± 2.0 %
same,Paw Withdrawal Threshold (g) (mean ± S.E.M.),[1]; [9],144 ± 7.2 g
same,% Decrease from Baseline (mean ± S.E.M.) of Paw Withdrawal Threshold,[1]; [10],27 ± 5.1 %
same,Paw Withdrawal Threshold (g) (mean ± S.E.M.),[1]; [10],174 ± 14.8 g
same,% Decrease from Baseline (mean ± S.E.M.) of Paw Withdrawal Threshold,[1]; [11],56 ± 4.0^ %
same,Paw Withdrawal Threshold (g) (mean ± S.E.M.),[1]; [11],105 ± 11.2 g
same,Paw Withdrawal Threshold (g) (mean ± S.E.M.),"[1]; 30 mg/kg IP, baseline (prior to drug administration)",237 ± 7.9 g
same,% Decrease from Baseline (mean ± S.E.M.) of Paw Withdrawal Threshold,[1]; [12],37 ± 5.3 % and 23 ± 6.6 % and 41 ± 3.6 %
same,Paw Withdrawal Threshold (g) (mean ± S.E.M.),[1]; [12],152 ± 14.1 g and 180 ± 13.7 g and 145 ± 9.8 g
same,% Decrease from Baseline (mean ± S.E.M.) of Paw Withdrawal Threshold,[1]; [13],53 ± 6.0^ % and 55 ± 4.6^ % and 56 ± 2.2^ %
same,Paw Withdrawal Threshold (g) (mean ± S.E.M.),[1]; [13],112 ± 12.4^ g and 105 ± 9.5 g and 108 ± 5.8^ g
same,Paw Withdrawal Threshold (g) (mean ± S.E.M.),"[1]; 100 mg/kg IP in 0.9% NaCl, baseline (prior to drug administration), 100 mg/kg",239 ± 7.7 g and 237 ± 7.8 g and 246 ± 4.5^ g
same,"% WL (mean ± S.E.M.), percentage of weight borne on the burn-injured left hind paw",[2]; 1 h after administration,33.6 ± 3.09 %
same,"% WL (mean ± S.E.M.), percentage of weight borne on the burn-injured left hind paw",[2]; 3 h after administration,44.8 ± 2.58%
same,"% WL (mean ± S.E.M.), percentage of weight borne on the burn-injured left hind paw",[2]; 5 h after administration,44.0 ± 2.24%
same,"% WL (mean ± S.E.M.), percentage of weight borne on the burn-injured left hind paw",[2]; baseline (prior to drug administration),51.1 ± 0.57%
